Reference: patent US9884012B2, “Use of PEDF-derived polypeptides for promoting muscle or tendon regeneration or arteriogenesis” (MacKay Memorial Hospital, priority 2012, dated 2018)
Marks after values point to notes of the source that are not given here.

What was measured:
[1] = test system: ischemic hindlimbs; assay: hindlimb ischemia model, laser Doppler perfusion imaging of limb blood perfusion; type: in vivo, C57BL/6 wild-type mice
Procedure: (§1) 6-week-old female C57BL/6 wild-type mice were anesthetized by an intraperitoneal injection of a mixture of zoletil (6 mg/kg) and xylazine (3 mg/kg). Hair was removed from the hindquarter with a depilating cream. To establish hindlimb ischemia, unilateral external iliac and femoral arteries and veins were ligated, cut, and excised. After surgery, the mice were randomly assigned to several experimental groups (n=6, each group) and treated as follows. In the blank control group, the mice were treated with 50 μl of blank alginate gel, whereas in the bolus control group, the mice received the bolus formulation containing 29-mer. In the PEDF peptide/alginate gel treatment groups, the mice received 50 μl of the sustained-release formulation, which comprised either 29-mer, 24-mer, or 20-mer. Additionally, in a PEDF 18-mer control group, mice were treated with a sustained-release formulation containing a PEDF 18-mer peptide. Treatments were applied by way of a single intramuscular injection to the gracilis muscle immediately after femoral artery and vein excision operation. The incision was closed after the wound was irrigated with sterile saline.
A laser Doppler perfusion imaging (LDPI) analyzer (Moor Instruments, USA) was used to quantify hindlimb blood perfusion before surgery (pre OP), immediately after surgery (post OP), and over time after surgery. To minimize vasoconstriction by anesthetic heat loss, animals were kept on a heating plate at 37° C. for 5 min before measurement. Representative LDPI images illustrating the blood perfusion of ischemic hindlimbs over a time period of 4 weeks were provided in FIG. 2 in which dark blue color represents low blood flow. Blood perfusion is expressed as LDPI index representing the ratio of operated (ischemic) versus non-operated (non-ischemic) limb blood flow of the same mouse, and the results were summarized in FIG. 3 and Table 1 (n 6).

[2] = test system: tibialis anterior muscle; assay: hindlimb ischemia model, tibialis anterior muscle necrosis/fibrosis and centrally nucleated fibers; type: in vivo, C57BL/6 wild-type mice; settings: two weeks after surgery, sustained-release formulation (Bolus: bolus 29-mer)
Procedure: The gracilis, adductor magnus, soleus, and tibialis muscles were fixed in 4% paraformaldehyde, dehydrated with graded ethanol series, and paraffinized. Fixed samples were de-paraffinized in xylene and rehydrated in a graded series of ethanol. Tissues were sliced into 5-μm sections. General histology was performed using H&E dye.
To ascertain the number of centrally nucleated muscle fibers, sections were stained with H&E and then photographed as described above. At least 100 stained fibers were randomly chosen from each photo. Muscle fibers were judged centrally nucleated if one or more nuclei were not located at the periphery of the fiber. The data were expressed as a % of the total number of muscle fibers counted. Results were evaluated from 6 sections per muscle section, and 10 mice at each group.
as §1
In most hindlimb ischemia models, tissue necrosis generally occurs in the muscles below the knee. For example, tibialis anterior muscle, which is distant to the gracilis muscle where the treatment was administered, often undergoes extensive necrosis with regeneration after femoral artery excision. The intensity of Masson's trichrome blue color staining depended on the content of collagen fibers in the investigated tissue, and fibrosis is the result of necrosis. […] Results from representative samples are illustrated in FIGS. 4A and 4B.
Statistical analyses regarding injured area (necrotic area+fibrotic area) and numbers of centrally nucleated fibers were also performed at two weeks after the surgery, and the results were summarized in Table 2. The injured area is expressed as the percent of total stained area (%), and the centrally nucleated fibers is expressed as the total number of muscle fibers counted (%).

[3] = test system: adductor magnus muscle arterioles; assay: hindlimb ischemia model, arteriole density (α-SMA) in adductor magnus muscle; type: in vivo, C57BL/6 wild-type mice; settings: two weeks after surgery, sustained-release formulation (Bolus: bolus 29-mer)
Procedure: The small artery densities (α-SMA positive cells surrounding the whole circumference of the vessel) were measured and images were taken from 10 randomly-selected areas of adductor magnus muscle (200× magnification) in each sample, and blinded quantification was performed in triplicate by manually counting within each section; values from five sections were then averaged and expressed as arteriole density per mm^2.
as §1
To investigate the arteriogenic effect of the present sustained-release formulation, adductor magnus muscles (located at the same level as femoral artery excision and in which arteriogenesis responsible for establishing collateral circulation is expected to be found) were harvested from animals in each experimental condition, two weeks after the surgery. Arterioles in muscle cross sections were identified by immunohistological staining for vascular smooth muscle cells (α-SMA; brown), and nuclei were labeled with hematoxylin; representative photographs were provided in FIG. 5. Quantitative analysis was also performed and the results were summarized in Table 3, and the data were expressed as α-SMA-positive arterioles per mm^2 in the peri-injury region.

[4] = test system: aortic ring explants; assay: rat aortic ring sprouting assay (ex vivo neovessel sprouting); type: cell-based; settings: aortic rings cultured with PEDF peptide, in words
[5] = test system: aortic ring explants; assay: as above; type: cell-based; settings: day 4, 50 ng/ml PEDF peptide, 50 ng/ml VEGF-A, 20 ng/ml FGF-2, MCDB131, 1% FBS, Matrigel
Procedure: To further confirm the neovessel development promoted by PEDF peptides, rat aortic ring sprouting assay was performed. Thoracic aortas were removed from euthanized rats and gently stripped of peri-aortic fibroadipose tissue. Aortas were sectioned into about 2-mm length rings, which were then embedded in a growth factor-reduced Matrigel. Gels containing the aortic rings were polymerized in 12-well plates incubated at 37° C. for 30 minutes. 1 ml of MCDB131 medium supplemented with 100 units/ml penicillin and […] streptomycin, 1% FBS, and a supplemental agent (50 ng/ml VEGF-A, 20 ng/ml FGF-2, or 50 ng/ml 29-mer, 24-mer, 20-mer, Mo 29-mer, Mo 20-mer, 25-mer, or 18-mer) were added to the Matrigel-containing explants. The cultures were propagated at 37° C. in a humidified incubator for up to 4 days, with media changes every other day. Neovessel sprouting was assessed until day 4 using an inverted microscope platform (Leica) with bright-field optics; representative photographs were provided in FIG. 6. Quantification of neovessel sprouting was assessed using Image-Pro Plus 6.0 software (Dendrites program). The experiment was repeated in triplicate.

[6] = test system: tendon stem cells (TSCs); assay: TSCs proliferation assay (BrdU labeling) in vitro; type: cell-based, New Zealand White rabbits; settings: TSCs passage 4; 50 nM peptide, 5% FBS, 24 hours; BrdU pulse-labeling
Procedure: New Zealand White rabbits (6-8 months old, 3.0-4.0 kg) were used in this study. Achilles tendons were removed from the rabbits by cutting through their bony attachments. The tendon sheath was stripped away and the core portion of the tendons was minced into small fragments. Each 100 mg of fragment was then digested in a solution containing 3 mg/mL of type I collagenase and 4 mg/mL of dispase in 1 ml Dulbecco's Modified Eagle Medium (DMEM-high glucose) at 37° C. for 2 hours. The resultant cell suspension was centrifuged at 1,000 rpm for 15 minutes to obtain a cell pellet which was then resuspended in a growth medium consisting of DMEM supplemented with 10% heat inactivated fetal bovine serum (FBS), 100 μM 2-mercaptoethanol, and 100 U/ml penicillin and 100 μg/ml streptomycin. For passage, near-confluent cells were harvested with 0.25% trypsin and then 1×10^5 subcultured cells were further cultured in medium.
The TSCs at passage 4 were seeded at gelatin-coated slide in a 6-well plate at a density of 2×10^5 cells per well and cultured in growth medium (DMEM+10% FBS) for 24 hours before being replaced by a basal growth medium with 5% FBS only (control group) or with 5% FBS plus an additional 50 nM of PEDF-derived peptide (i.e., 29-mer, 24-mer, 20-mer, 18-mer, Mo 29-mer, or Mo 20-mer) for 24 hours. For BrdU labeling assay, BrdU (final concentration, 10 μM) was added to the culture for 4 hours. After fixing with 4% paraformaldehyde, cells were exposed to cold methanol for 2 minutes, and then treated with 1 N HCl at RT for 1 hour before performing immunofluorescence. The phenotype of passage 4 TSC was determined by immunocytochemistry of nucleostemin and type I collagen. Almost all of expanded TSCs were nucleostemin and type I collagen-double positive cells.
It has been reported that during the tendon healing process, tendon stem cells (TSCs) would proliferate and differentiate into tenocytes. To investigate whether present PEDF peptides would induce the proliferation of TSCs in vitro, tendons stem cells were isolated and cultured as described in the “Materials and Methods” section. The purity of TSCs was confirmed by a TSC marker, nucleostemin, as well as the expression of type I collagen by TSCs; together, these analyses indicated a TSC purity of near 100% (data not shown). The proliferation of TSCs was confirmed by BrdU pulse-labeling for 2 hours. Quantitative analysis of the level of BrdU-positive cells was performed as described above, and the results were summarized in Table 8.

EQRTESIIHRALYYDLIS [18-mer, control PEDF peptide without the SLGA residues, reference compound]
Ischemic/Non-ischemic Perfusion Ratio (%) 7 days ([1]; 7 days after surgery, 50 μl sustained-release alginate gel formulation, 10 μM peptide (Bolus: bolus formulation of 29-mer), single intramuscular injection to gracilis muscle): 23.8 ± 4.5% | Ischemic/Non-ischemic Perfusion Ratio (%) 14 days ([1]; 14 days after surgery, sustained-release formulation (Bolus: bolus 29-mer), single intramuscular injection): 30.3 ± 0.94% | Ischemic/Non-ischemic Perfusion Ratio (%) 21 days ([1]; 21 days after surgery, sustained-release formulation (Bolus: bolus 29-mer), single intramuscular injection): 46.8 ± 4.3% | Ischemic/Non-ischemic Perfusion Ratio (%) 28 days ([1]; 28 days (four weeks) after surgery, sustained-release formulation (Bolus: bolus 29-mer), single intramuscular injection): 52.8 ± 7.4% | Ischemic/Non-ischemic Perfusion Ratio (%) Pre OP ([1]; before surgery (baseline), LDPI): 104.5 ± 2.5% | Ischemic/Non-ischemic Perfusion Ratio (%) Post OP ([1]; immediately after surgery, LDPI): 7.5 ± 0.67% | blood perfusion as compared with blank control ([1]; over 4 weeks after surgery, in words): did not exhibit improved blood perfusion | Centrally nucleated fibers (%) [2]: 20.5 ± 3.3% | Injured Area (%) (necrotic area + fibrotic area, percent of total stained area) [2]: 78.5 ± 5.1% | Arteriole Density per mm^2 (α-SMA-positive arterioles) [3]: 4.0 ± 0.58 per mm^2 | neovessel phenotype by dual immunofluorescence (α-SMA / isolectin B4) [4]: barely detected

FGF2: well-known angiogenic factor used as positive control, 20 ng/ml [reference compound]
Neovessel Sprouting Fold [5]: 3.5* fold of untreated aortic ring | Neovessel Sprouting Fold ([5]; listed as FGF-2): ~3.5 fold of untreated aortic ring

SLGAEHRTESVIHRALYYDL [Mo 20-mer, synthetic peptide derived from mouse PEDF]
Neovessel Sprouting Fold [5]: 6.4* fold of untreated aortic ring | BrdU Labeling Index (%) [6]: 31.8 ± 3.1 %

SLGAEHRTESVIHRALYYDLITNPDIHST [Mo 29-mer, synthetic peptide derived from mouse PEDF]
Neovessel Sprouting Fold [5]: 6.1* fold of untreated aortic ring | BrdU Labeling Index (%) [6]: 33.2 ± 6.6 %
